Where no end group is shown, it is not given here.
Legend:
[1] = target: T1, human phospholipase A2, content of tears (P14555) (Homo sapiens, UniProt P14555); assay: Activity of human tear phospholipase A2 towards C28-O-PHPM in the presence of peptide (pyrene monomer fluorescence); type: biochemical; details: 2 nM enzyme, 40 nM or 80 nM peptide; FIG. 2
T1 construct: Reaction mixture contained 2 nM of phospholipase of human tears; from tissue; host or cells: human tear fluid
T1 sequence (P14555 21-144): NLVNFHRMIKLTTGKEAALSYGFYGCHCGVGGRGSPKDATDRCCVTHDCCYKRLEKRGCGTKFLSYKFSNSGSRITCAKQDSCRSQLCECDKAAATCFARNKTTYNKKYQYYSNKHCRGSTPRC
Method: Activity of secretory phospholipase A2 (Apis mellifica) of class III towards C28—O—PHPM was measured in the presence of peptide KMYFNLI (SEQ ID NO:1). Reaction mixture contained 2 nM of phospholipase A2, 2 nM or 4 nM of the peptide and 1.25 μM C28—O—PHPM (1-octacosanyl-2-(6-pyren-1-yl)hexanoyl-sn-glycero-3-phosphatidylmethanol) in 2.0 ml of 5 mM HEPES, 0.1 mM EDTA, 1 mM CaCl2, pH 7.4 at 37° C. with stirring. The assay was performed with or without preincubation step. The enzymatic reaction was followed by measuring the pyrene monomer fluorescence intensity at 400 nm using a spectrofluorometer. Excitation wavelength was 343 nm and the excitation and emission slits were 10 nm.
Activity of human phospholipase A2, content of tears (P14555), was measured in the presence of peptide AALSYGFYG (SEQ ID NO:68). Reaction mixture contained 2 nM of phospholipase of human tears, 40 nM or 80 nM of the peptide and 1.25 μM C28—O—PHPM (1-octacosanyl-2-(6-pyren-1-yl)hexanoyl-sn-glycero-3-phosphatidylmethanol) in 2.0 ml of 5 mM HEPES, 0.1 mM EDTA, 1 mM CaCl2, pH 7.4 at 37° C. with stirring. The assay was performed with or without preincubation step. The enzymatic reaction was followed as described in Example 2.

[2] = target: secretory phospholipase A2 (Apis mellifica) of class III (Apis mellifera, UniProt P00630)
secretory phospholipase A2 (Apis mellifica) of class III, sequence (P00630 34-167 limits assumed): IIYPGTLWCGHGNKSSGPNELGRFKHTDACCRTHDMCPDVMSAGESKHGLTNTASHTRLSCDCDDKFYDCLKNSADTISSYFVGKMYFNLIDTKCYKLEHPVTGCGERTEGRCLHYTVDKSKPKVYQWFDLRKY

| Substance | inhibition of tear fluid PLA2 activity [1] | inhibition of bee venom PLA2 enzyme [2] | peptide concentration at which inhibition was observed [2] [nM] |
| --- | --- | --- | --- |
| AALSYGFYG (not fully specified (C-terminus); listed as Homo sapiens) [synthetic peptide corresponding to residues 17-25 of human secretory PLA2 present in tear fluid] | inhibited | – | – |
| KMYFNLI | – | complete inhibition | 2 |

Reference: patent US20130079493A1, “Method for prepairing peptide inhibitors of a lipid-activated enzyme and peptides produced by same” (ESTAJA OY, priority 2010, published 2013)
